Common to all, as to assay: IFN-γ ELISpot with T cell clone
Common to all, as to format: cell-based, human

One experiment concerns Patient 2 TCC-01. As to conditions: TCC Patient 2 TCC-01 (Table 5); mean no antigen 1.1. The procedure:
(§1) Peripheral blood mononuclear cells (PBMC) were isolated from heparinized whole blood using Ficoll-Paque™ Plus density-gradient centrifugation (GE Healthcare). IFN-γ ELISpot (Mabtech) was set up as previously described^8.
(§2) Isolation of TCC from CD patients was carried out as previously described^8. Briefly, CFSE-labeled PBMC were incubated with antigen for 7 days in IMDM supplemented with 5% heat-inactivated pooled human serum (PHS), 2 mM GlutaMAX™, 100 μM MEM non-essential amino acids (both from Gibco, Invitrogen), and 50 μM 2-mercaptoethanol (Sigma). Proliferated cells were single-cell sorted into 96-well plates containing IL-2, IL-4, anti-CD3 mAb, irradiated feeder cells (allogeneic PBMC and JY-EBV). TCC were expanded and maintained in IL-2 and IL-4 and tested for specificity by ELISpot with irradiated HLA-matched PBMC as antigen-presenting cells. Expanded clones were tested for HLA-DQ restriction, TCR Vbeta usage, and with lysine scans to work out minimal epitopes. See Table 1 below for TCC and epitope information.

A further experiment deals with Patient 6 TCC-01. As to conditions: TCC Patient 6 TCC-01 (Table 5); mean no antigen 2. The procedure:
as §1, §2

Another experiment relates to Patient 14 TCC-01. Particulars: TCC Patient 14 TCC-01 (Table 5); mean no antigen 11.3, high background, SFU >25 considered as positive responses. The procedure:
as §1, §2

Where no end group is shown, it is not given here. [ ]: non-standard residue; d: D form. pGlu = O=C1CC[C@@H](C(=O)O)N1

On to “PEQPFPEQPQPYPQQP [barley peptide, AFM77740.1 (25-40) [Q26 to E, Q31 to E]]”, for which the “IFN-γ ELISpot response (raw SFU)” value with Patient 2 TCC-01 came to 202 SFU; in the experiment with Patient 6 TCC-01, 73 SFU; with Patient 14 TCC-01 it was 66 SFU.

“PQPFPEQPIPEQPQPY [barley peptide, 1103203A (27-42) [Q32 to E, Q37 to E]]”: the “IFN-γ ELISpot response (raw SFU)” value in the experiment with Patient 2 TCC-01 came out at 1 SFU; in the experiment on Patient 6 TCC-01 it was 60 SFU; in the experiment with Patient 14 TCC-01, 38 SFU.

As to “PQPYPEQPQPFPQQPP [barley peptide, 1103203B (39-54) [Q44 to E]]”, the “IFN-γ ELISpot response (raw SFU)” value in the experiment on Patient 2 TCC-01 is given as 292 SFU; in the experiment on Patient 6 TCC-01, 69 SFU; in the experiment on Patient 14 TCC-01, 12 SFU.

Turning to “pEPEQIIPEQPEQPS ([pGlu]PEQIIPEQPEQPS) [rye peptide, AAB58403.1 (195-208) [Q195 to pyroglutamate, Q202 to E, Q205 to E], reference compound]”, the results for the “IFN-γ ELISpot response (raw SFU)” value with Patient 2 TCC-01, in the experiment on Patient 6 TCC-01 and in the experiment on Patient 14 TCC-01 were 2 SFU, 3 SFU and 59 SFU, respectively.

As for “pEPEQPFPEQPQQII ([pGlu]PEQPFPEQPQQII) [rye peptide, AAB58403.1 (187-200) [Q187 to pyroglutamate, Q189 to E, Q194 to E], reference compound]”, the “IFN-γ ELISpot response (raw SFU)” value in the experiment on Patient 2 TCC-01 stood at 0 SFU; with Patient 6 TCC-01, 0 SFU; in the experiment with Patient 14 TCC-01, 58 SFU.

Regarding “pEPEQTFPEQPQLPF ([pGlu]PEQTFPEQPQLPF) [wheat peptide, AAK84780.1 (5-18) [Q5 to pyroglutamate, Q7 to E, Q12 to E], reference compound]”, the “IFN-γ ELISpot response (raw SFU)” value amounted to 2 SFU in the experiment with Patient 2 TCC-01, 11 SFU in the experiment with Patient 6 TCC-01 and 33 SFU in the experiment on Patient 14 TCC-01.

Regarding “pEPFPEQPEQPFPQP ([pGlu]PFPEQPEQPFPQP) [wheat peptide, ACO40292.1 (81-94) [Q81 to pyroglutamate, Q85 to E, Q88 to E], reference compound]”, the figures for the “IFN-γ ELISpot response (raw SFU)” value with Patient 2 TCC-01, in the experiment with Patient 6 TCC-01 and in the experiment on Patient 14 TCC-01 were 119 SFU, 5 SFU and 14 SFU, respectively.

On to “pEPFPEQPEQPYPQQ ([pGlu]PFPEQPEQPYPQQ) [wheat peptide, CAC11056.1 (53-66) [Q53 to pyroglutamate, Q57 to E, Q60 to E], reference compound]”, for which the “IFN-γ ELISpot response (raw SFU)” value with Patient 2 TCC-01 was 150 SFU; with Patient 6 TCC-01, 1 SFU; in the experiment on Patient 14 TCC-01 it was 19 SFU.

For “pEQPFPEQPFPEQPQPY ([pGlu]QPFPEQPFPEQPQPY) [barley peptide, AFM77740.1 (21-36) [Q21 to pyroglutamate, Q26 to E, Q31 to E]]”, the figures for the “IFN-γ ELISpot response (raw SFU)” value with Patient 2 TCC-01, in the experiment with Patient 6 TCC-01 and in the experiment on Patient 14 TCC-01 were 229 SFU, 64 SFU and 27 SFU, respectively.

On to “pEQPFPQPEQPQLPF ([pGlu]QPFPQPEQPQLPF) [wheat peptide, AAK84772.1 (126-139) [Q126 to pyroglutamate, Q133 to E], reference compound]”, for which the “IFN-γ ELISpot response (raw SFU)” value in the experiment with Patient 2 TCC-01 is listed as 4 SFU; in the experiment on Patient 6 TCC-01 it was 23 SFU; with Patient 14 TCC-01, 14 SFU.

Take “pEQPFPQPEQPTPIQ ([pGlu]QPFPQPEQPTPIQ) [rye peptide, AAB58403.1 (65-78) [Q65 to pyroglutamate, Q72 to E], reference compound]”: the “IFN-γ ELISpot response (raw SFU)” value in the experiment with Patient 2 TCC-01 was 1 SFU; with Patient 6 TCC-01, 34 SFU; with Patient 14 TCC-01, 20 SFU.

“pEQPFTQPEQPTPIQ ([pGlu]QPFTQPEQPTPIQ) [wheat peptide, AAG17702.1 (78-91) [Q78 to pyroglutamate, Q85 to E], reference compound]”: the “IFN-γ ELISpot response (raw SFU)” value was determined as 0 SFU in the experiment on Patient 2 TCC-01, 65 SFU with Patient 6 TCC-01 and 13 SFU in the experiment with Patient 14 TCC-01.

Source of the values: patent US20160238590A1, “COMPOSITIONS AND METHODS RELATED TO OAT SENSITIVITY” (IMMUSANT, INC., priority 2013, published 2016).
